According to patent US10934302B1, “SHP2 phosphatase inhibitors and methods of use thereof” (Relay Therapeutics, Inc., priority 2018, dated 2021):

Molecular target: SHP2 (Homo sapiens (Human), UniProt Q06124)
Assay: SHP2 allosteric inhibition assay (DiFMUP prompt fluorescence)
Type: biochemical
Conditions: 0.25 nM SHP2 activated with 0.5 μM peptide IRS1_pY1172(dPEG8)pY1222; substrate DiFMUP

IC50 [nM]	SMILES
≤ 50	Cc1nc(N2CCCc3ncccc32)cnc1N1CCC2(CC1)Cc1ccccc1[C@H]2N [Example 196]
≤ 50	Cc1c(NCc2cccnc2)ccnc1N1CCC2(CC1)Cc1ccccc1[C@H]2N [Example 199]
≤ 50	N[C@@H]1c2ccccc2CC12CCN(c1cnc(C(=O)c3ccccc3)cn1)CC2 [Example 256, (S)-(5-(1-amino-1,3-dihydrospiro[indene-2,4′-piperidin]-1′-yl)pyrazin-2-yl)(phenyl)methanone]
≤ 50	Nc1nccc(-c2n[nH]c3nc(N4CCC5(CC4)Cc4ccccc4[C@H]5N)cnc23)c1Cl [Example 79, (3S)-1′-[3-(2-amino-3-chloropyridin-4-yl)-1H-pyrazolo[3,4-b]pyrazin-6-yl]-1,3-dihydrospiro[indene-2,4′-piperidin]-3-amine]
≤ 50	N[C@@H]1c2ccccc2CC12CCN(c1nc3[nH]ncc3nc1CO)CC2 [Example 104, (S)-(6-(1-amino-1,3-dihydrospiro[indene-2,4′-piperidin]-1′-yl)-1H-pyrazolo[3,4-b]pyrazin-5-yl)methanol]
≤ 50	Cc1nc(SC2CCCC2)cnc1N1CCC2(CC1)Cc1ccccc1[C@H]2N [Example 249, (3S)-1′-[5-(cyclopentylsulfanyl)-3-methylpyrazin-2-yl]-1,3-dihydrospiro[indene-2,4′-piperidin]-3-amine]
≤ 50	Cc1nccc(Sc2n[nH]c3nc(N4CCC5(CC4)Cc4ccccc4[C@H]5N)c(CO)nc23)c1Cl [Example 89]
1000 to 10000	N[C@@H]1c2ccccc2CC12CCN(c1cn3ccnc3cn1)CC2 [Example 169, (3S)-1′-{imidazo[1,2-a]pyrazin-6-yl}-1,3-dihydrospiro[indene-2,4′-piperidin]-3-amine]
> 10000	Cn1cc2c(N3CCC4(CC3)Cc3ccccc3[C@H]4N)ncnc2n1 [Example 182]
≤ 50	C[C@@H](C(N)=O)N(C)c1n[nH]c2nc(N3CCC4(CC3)Cc3ccccc3[C@H]4N)cnc12 (racemic) [Example 151, (2S)-2-({6-[(3S)-3-amino-1,3-dihydrospiro[indene-2,4′-piperidin]-1′-yl]-1H-pyrazolo[3,4-b]pyrazin-3-yl}(methyl)amino)propanamide]
≤ 50	Cc1nc(Sc2ccnc(N)c2Cl)cnc1N1CCC2(CC1)Cc1ccccc1[C@H]2N [Example 84, (S)-1′-(5-((2-amino-3-chloropyridin-4-yl)thio)-3-methylpyrazin-2-yl)-1,3-dihydrospiro[indene-2,4′-piperidin]-1-amine]
≤ 50	Cc1c(-c2ccccc2Cl)nc2sc(N3CCC4(CC3)Cc3ccccc3[C@H]4N)nn12 [Example 144, (S)-1′-(6-(2-chlorophenyl)-5-methylimidazo[2,1-b][1,3,4]thiadiazol-2-yl)-1,3-dihydrospiro[indene-2,4′-piperidin]-1-amine]
1000 to 10000	N[C@@H]1c2ccccc2CC12CCN(c1cnc3c(ccn3-c3cccc4ncccc34)n1)CC2 [Example 192, (3S)-1′-[5-(quinolin-5-yl)-5H-pyrrolo[2,3-b]pyrazin-2-yl]-1,3-dihydrospiro[indene-2,4′-piperidin]-3-amine]
≤ 50	C[C@@H](O)c1nc(Sc2ccnc(Cl)c2Cl)cnc1N1CCC2(CC1)Cc1ccccc1[C@H]2N [Example 259, (1R)-1-{3-[(3S)-3-amino-1,3-dihydrospiro[indene-2,4′-piperidin]-1′-yl]-6-[(2,3-dichloropyridin-4-yl)sulfanyl]pyrazin-2-yl}ethan-1-ol]
≤ 50	N[C@@H]1c2ccccc2CC12CCN(c1nn3cc(C4CCCC4)nc3s1)CC2 [Example 252, (1S)-1′-{6-cyclopentylimidazo[2,1-b][1,3,4]thiadiazol-2-yl}-1,3-dihydrospiro[indene-2,4′-piperidin]-1-amine]
≤ 50	N[C@@H]1c2ccccc2CC12CCN(c1ncc(SCC3CC3)nc1CO)CC2 [Example 244, (S)-(3-(1-amino-1,3-dihydrospiro[indene-2,4′-piperidin]-1′-yl)-6-((cyclopropylmethyl)thio)pyrazin-2-yl)methanol]
1000 to 10000	Cc1cc(-c2nccs2)cc(N2CCC3(CC2)Cc2ccccc2[C@H]3N)n1 [Example 270, (S)-1′-(6-methyl-4-(thiazol-2-yl)pyridin-2-yl)-1,3-dihydrospiro[indene-2,4′-piperidin]-1-amine]
≤ 50	N[C@@H]1c2ccccc2CC12CCN(c1cnc(Sc3cccc(Cl)c3Cl)cn1)CC2 [Example 147, (S)-1′-(5-((2,3-dichlorophenyl)thio)pyrazin-2-yl)-1,3-dihydrospiro[indene-2,4′-piperidin]-1-amine]
≤ 50	COc1n[nH]c2nc(N3CCC4(CC3)Cc3ccccc3[C@H]4N)c(CO)nc12 [Example 158, {6-[(3S)-3-amino-1,3-dihydrospiro[indene-2,4′-piperidin]-1′-yl]-3-methoxy-1H-pyrazolo[3,4-b]pyrazin-5-yl}methanol]
≤ 50	Nc1cnc(CO)c(N2CCC3(CC2)Cc2ccccc2[C@H]3N)n1 [Example 123, {5-amino-3-[(3S)-3-amino-1,3-dihydrospiro[indene-2,4′-piperidin]-1′-yl]pyrazin-2-yl}methanol]

The next lines start with the compound.

SMILES	IC50 [nM]
N[C@@H]1c2ccccc2CC12CCN(c1cnc3c(N4CCCc5cc(OS(=O)(=O)F)ccc54)n[nH]c3n1)CC2 [Example 65, 1-{6-[(3S)-3-amino-1,3-dihydrospiro[indene-2,4′-piperidin]-1′-yl]-1H-pyrazolo[3,4-b]pyrazin-3-yl}-1,2,3,4-tetrahydroquinolin-6-yl sulfurofluoridate]	≤ 50
N[C@@H]1c2ccccc2OC12CCN(c1cnc(Sc3cccnc3Cl)cn1)CC2 [Example 96]	≤ 50
N[C@@H]1c2ccccc2C[C@]12CC=C(c1cnc3c(N4CCCc5ncccc54)n[nH]c3n1)CC2 [Example 175, (1S,1'S)-4-(3-(3,4-dihydro-1,5-naphthyridin-1(2H)-yl)-1H-pyrazolo[3,4-b]pyrazin-6-yl)-1′,3′-dihydrospiro[cyclohex[3]ene-1,2′-inden]-1′-amine]	1000 to 10000
Nc1nccc(Sc2cnc3c(n2)OC[C@H]2C[C@@]4(CCN32)Oc2ccccc2[C@@H]4N)c1Cl [Example 221]	≤ 50
Nc1nccc(Sc2cnc(C34C[C@@H]5C[C@@]6(C[C@H](C3)N54)Oc3ccccc3[C@H]6N)cn2)c1Cl (some centres unmarked) [Example 232]	≤ 50
N[C@@H]1c2cc(F)ccc2OC12CCN(c1cnc(SCC3CC3)cn1)CC2 [Example 239]	50 to 1000
N[C@@H]1c2ccccc2C[C@@]12CC=C(c1cnc3c(N4CCCc5ncccc54)n[nH]c3n1)CC2 (single isomer, unassigned) [Example 173]	> 10000
Cc1nc2c(N3CCCC3)n[nH]c2nc1N1CCC2(CC1)Cc1ccccc1[C@H]2N [Example 254, (1S)-1′-[5-methyl-3-(pyrrolidin-1-yl)-1H-pyrazolo[3,4-b]pyrazin-6-yl]-1,3-dihydrospiro[indene-2,4′-piperidin]-1-amine]	> 10000
N[C@@H]1c2ccccc2CC12CCN(c1cnc3c(N4CCCc5nc(-c6ccn[nH]6)ccc54)n[nH]c3n1)CC2 [Example 4]	≤ 50
N[C@@H]1c2ccccc2OC12CCN(c1nc3[nH]ncc3nc1CO)CC2 [Example 159, {6-[(3R)-3-amino-3H-spiro[1-benzofuran-2,4′-piperidin]-1′-yl]-1H-pyrazolo[3,4-b]pyrazin-5-yl}methanol]	≤ 50
Cc1nc2c(N3CCC(F)(F)CC3)n[nH]c2nc1N1CCC2(CC1)Cc1ccccc1[C@H]2N [Example 186, (3S)-1′-[3-(4,4-difluoropiperidin-1-yl)-5-methyl-1H-pyrazolo[3,4-b]pyrazin-6-yl]-1,3-dihydrospiro[indene-2,4′-piperidin]-3-amine]	≤ 50
NC1c2ncccc2CC12CCN(c1cnc3c(N4CCCc5ncccc54)n[nH]c3n1)CC2 (centres unmarked) [Example 45]	≤ 50
N[C@@H]1c2ccccc2CC12CCN(c1ncc(N3CCc4ccccc43)nc1CO)CC2 [Example 213, (S)-(3-(1-amino-1,3-dihydrospiro[indene-2,4′-piperidin]-1′-yl)-6-(indolin-1-yl)pyrazin-2-yl) methanol]	50 to 1000
Cn1ccc2c(c1=O)CCCN2c1n[nH]c2nc(N3CCC4(CC3)Cc3ccc(F)cc3[C@H]4N)cnc12 [Example 58]	≤ 50
Cc1nc2c(N3CCCCC3)n[nH]c2nc1N1CCC2(CC1)Oc1cc(F)ccc1[C@H]2N [Example 278, (3R)-6-fluoro-1′-[5-methyl-3-(piperidin-1-yl)-1H-Pyrazolo[3,4-b]pyrazin-6-yl]-3H-spiro[1-benzofuran-2,4′-piperidin]-3-amine]	≤ 50
N[C@@H]1c2ccccc2CC12CCN(c1cnc(SC3CCCC3)cn1)CC2 [Example 168, (3S)-1′-[5-(cyclopentylsulfanyl)pyrazin-2-yl]-1,3-dihydrospiro[indene-2,4′-piperidin]-3-amine]	≤ 50
N[C@@H]1c2ccccc2CC12CCN(c1ncc(N3CCCc4ncccc43)nc1CO)CC2 [Example 211, {3-[(3S)-3-amino-1,3-dihydrospiro[indene-2,4′-piperidin]-1′-yl]-6-(1,2,3,4-tetrahydro-1,5-naphthyridin-1-yl)pyrazin-2-yl}methanol]	50 to 1000
N[C@@H]1c2ccccc2CC12CCN(C(=O)c1ccccc1Oc1ccccc1)CC2 [Example 292, (3S)-1′-(2-phenoxybenzoyl)-1,3-dihydrospiro[indene-2,4′-piperidin]-3-amine]	> 10000
NC1c2ccccc2C[C@]12CC[C@H](c1ccc(SCC3CC3)nc1)CC2 (single isomer, unassigned) [Example 282, (1s, 3′R, 4S)-4-{6-[(cyclopropylmethyl)sulfanyl]pyridin-3-yl}-1′,3′-dihydrospiro[cyclohexane-1,2′-inden]-3′-amine]	≤ 50
CCSc1cnc(N2CCC3(CC2)Cc2ccccc2[C@H]3N)cn1 [Example 170, (3S)-1′-[5-(ethylsulfanyl)pyrazin-2-yl]-1,3-dihydrospiro[indene-2,4′-piperidin]-3-amine]	50 to 1000
Cc1nc2c(N3CCOCC3)n[nH]c2nc1N1CCC2(CC1)Cc1ccccc1[C@H]2N [Example 160, (3S)-1′-[5-methyl-3-(morpholin-4-yl)-1H-pyrazolo[3,4-b]pyrazin-6-yl]-1,3-dihydrospiro[indene-2,4′-piperidin]-3-amine]	≤ 50
